Values quoted from earlier work as cited in paper PMC3653294 (Bioorganic & medicinal chemistry, 2013).

Tested on: liver fibrosis

Compound: CCOc1nc2cccc(C(=O)O)c2n1Cc1ccc(-c2ccccc2-c2nnn[nH]2)cc1 [Candesartan]
- effect on liver fibrosis: decreases liver fibrosis
